From ChEMBL document CHEMBL5053548, “Subphthalocyanines as Efficient Photosensitizers with Nanomolar Photodynamic Activity against Cancer Cells” (J Med Chem, 2021)
Active and inactive are the calls of the source. No cut-off for these calls is given here.

How the values were obtained:
[1] = Fluorescence property of compound in MeOH assessed as life time; format: physicochemical
[2] = Induction of singlet oxygen generation in MeOH assessed as singlet oxygen quantum yield; format: functional
[3] = Emission maximum of the compound in THF; format: physicochemical
[4] = Absorption maximum of the compound in MeOH; format: physicochemical
[5] = Fluorescence property of compound in MeOH assessed as quantum yield; format: physicochemical
[6] = Selectivity index, ratio of TC50 for human SK-MEL-28 cells to EC50 for human SK-MEL-28 cells
[7] = Drug uptake in human HeLa cells assessed per mg protein measured upto 12 hrs by spectrofluorometric method; format: ADME, cell-based
[8] = Fluorescence property of compound in THF assessed as life time; format: physicochemical
[9] = Dark toxicity against human HeLa cells assessed as reduction in cell viability incubated for 24 hrs by neutral red uptake assay; format: cell-based; conditions: read-out: TC50
[10] = Phototoxicity against human SK-MEL-28 cells assessed as reduction in cell viability preincubated for 12 hrs followed by 15 mins of light irradiation and measured after 24 hrs by neutral red uptake assay; format: functional, cell-based; conditions: SK-MEL-28, light or radiation study
[11] = test system: SK-MEL-28; assay: Induction of apoptosis in human SK-MEL-28 cells at EC50 concentration preincubated for 12 hrs followed by 15 mins light irradiation and measured every 15 mins for 48 hrs by real time-glo Annexin V assay; format: functional, cell-based; conditions: time 3615.0 min
[12] = Absorption maximum of the compound in EtOH; format: physicochemical
[13] = Drug uptake in human SK-MEL-28 cells assessed per mg protein measured upto 12 hrs by spectrofluorometric method; format: ADME, cell-based; conditions: sk-mel-28, 12 h
[14] = Fluorescence property of compound in EtOH assessed as quantum yield; format: physicochemical
[15] = Absorption property of the compound in THF assessed as extinction coefficient; format: physicochemical
[16] = Selectivity index, ratio of TC50 for human HeLa cells to EC50 for human HeLa cells
[17] = Drug localization in adiposome of human SK-MEL-28 cells at 1 uM after 12 hrs by confocal microscopy analysis; format: ADME, subcellular; conditions: sk-mel-28, 12 h
[18] = Fluorescence property of compound in THF assessed as quantum yield; format: physicochemical
[19] = Phototoxicity against human HeLa cells assessed as reduction in cell viability preincubated for 12 hrs followed by 15 mins of light irradiation and measured after 24 hrs by neutral red uptake assay; format: functional, cell-based; conditions: light or radiation study
[20] = Drug localization in adiposome of human HeLa cells at 1 uM after 12 hrs by confocal microscopy analysis; format: ADME, subcellular
[21] = Induction of singlet oxygen generation in EtOH assessed as singlet oxygen quantum yield; format: functional
[22] = Induction of singlet oxygen generation in THF assessed as singlet oxygen quantum yield; format: functional
[23] = Dark toxicity against human SK-MEL-28 cells assessed as reduction in cell viability incubated for 24 hrs by neutral red uptake assay; format: cell-based; conditions: read-out: TC50
[24] = Absorption maximum of the compound in THF; format: physicochemical
[25] = n-Octanol/PBS partition coefficient, logP of the compound at pH 7.4 at 100 uM after 5 mins; format: physicochemical
[26] = test system: HeLa; assay: Potency index, ratio of S3AlOHPc EC50 to test compound EC50 for phototoxicity against human HeLa cells; format: functional
[27] = Drug localization in endo-lysosome of human HeLa cells at 1 uM after 12 hrs by confocal microscopy analysis; format: ADME, subcellular
[28] = test system: HeLa; assay: Potency index, ratio of temo-porfin EC50 to test compound EC50 for phototoxicity against human HeLa cells; format: functional
[29] = Drug localization in endo-lysosome of human SK-MEL-28 cells at 1 uM after 12 hrs by confocal microscopy analysis; format: ADME, subcellular; conditions: sk-mel-28, 12 h
[30] = test system: HeLa; assay: Potency index, ratio of PpXI EC50 to test compound EC50 for phototoxicity against human HeLa cells; format: functional
[31] = Fluorescence property of compound in acetone assessed as quantum yield; format: physicochemical

CC1(C)CCC(C)(C)c2cc3c(cc21)C1=Nc2c4cc5c(cc4c4n2[B-]2(Cl)n6c(c7cc8c(cc7c6=N4)C(C)(C)CCC8(C)C)=NC3=[N+]12)C(C)(C)CCC5(C)C (configuration not stated)
Activity [1]: 2.04 nanoseconds | Activity [2]: 0.65 | Activity [3]: 587 nm | Activity [4]: 575 nm | Activity [5]: 0.18

Ic1ccc2c(c1)C1=[N+]3C2=Nc2c4ccc(I)cc4c4n2[B@-]3(OCc2ccc3c(c2)OCCOCCOCCOCCOCCO3)n2c(c3cc(I)ccc3c2=N4)=N1
Selectivity Index [6]: 1891 | Drug uptake [7]: 0.33 nmol/mg | Activity [8]: 0.35 nanoseconds | CC50 at 24 h [9]: 23.5 µM | EC50 [10]: 0.038 µM | Activity [11]: Active | Activity [12]: 569 nm | Drug uptake [13]: 0.005 nmol/mg | Activity [3]: 578 nm | Activity [14]: 0.022 | Activity [15]: 80750 M⁻¹ cm⁻¹ | Selectivity Index [16]: 356 | Drug uptake [17]: Active | Activity [18]: 0.022 | EC50 [19]: 0.066 µM | Drug uptake [20]: Active | Activity [21]: 0.59 | Activity [22]: 0.57 | CC50 at 24 h [23]: 71.8 µM | Activity [24]: 568 nm

COC(=O)[C@H](Cc1ccc(O[B-]23n4c5c6c(F)c(F)c(F)c(F)c6c4N=c4c6c(F)c(F)c(F)c(F)c6c(n42)=NC2=[N+]3C(=N5)c3c(F)c(F)c(F)c(F)c32)cc1)NC(=O)OC(C)(C)C (some centres not stated)
Selectivity Index [6]: >1.51 | CC50 at 24 h [9]: 65.7 µM | EC50 [10]: 66.2 µM | Activity [12]: 567 nm | Activity [3]: 578 nm | Activity [14]: 0.09 | Activity [15]: 27790 M⁻¹ cm⁻¹ | Selectivity Index [16]: 1.03 | Activity [18]: 0.09 | EC50 [19]: 64 µM | Activity [21]: 0.19 | Activity [22]: 0.19 | CC50 at 24 h [23]: > 100 µM | Activity [24]: 568 nm

COC(=O)[C@H](Cc1ccc(O[B@@-]23n4c5c6ccc(I)cc6c4N=c4c6ccc(I)cc6c(n42)=NC2=[N+]3C(=N5)c3ccc(I)cc32)cc1)NC(=O)OC(C)(C)C
Selectivity Index [6]: >4 | Activity [8]: 0.3 nanoseconds | CC50 at 24 h [9]: > 50 µM | EC50 [10]: 11.8 µM | logD at 5 min, 100 µM [25]: 2.22 | Activity [12]: 568 nm | Activity [3]: 577 nm | Activity [14]: 0.03 | Activity [15]: 106120 M⁻¹ cm⁻¹ | Selectivity Index [16]: >4 | Drug uptake [17]: Active | Activity [18]: 0.03 | EC50 [19]: 12.2 µM | Drug uptake [20]: Active | Activity [21]: 0.86 | Activity [22]: 0.64 | CC50 at 24 h [23]: > 50 µM | Activity [24]: 569 nm

Cl[B-]12n3c4c5ccc(I)cc5c3N=c3c5ccc(I)cc5c(n31)=NC1=[N+]2C(=N4)c2ccc(I)cc21 (configuration not stated)
Activity [8]: 0.3 nanoseconds | Activity [12]: 569 nm | Activity [3]: 581 nm | Activity [14]: 0.03 | Activity [15]: 65160 M⁻¹ cm⁻¹ | Activity [18]: 0.03 | Activity [21]: 0.77 | Activity [22]: 0.7 | Activity [24]: 572 nm

CCSc1ccc2c(c1)C1=Nc3c4ccc(SCC)cc4c4n3[B-]3(OCc5ccc6c(c5)OCCOCCOCCOCCOCCO6)n5c(c6cc(SCC)ccc6c5=N4)=NC2=[N+]13 (configuration not stated)
Selectivity Index [6]: 6300 | Drug uptake [7]: 9.69 nmol/mg | Activity [8]: 1.77 nanoseconds | CC50 at 24 h [9]: 5.25 µM | Ratio EC50 [26]: 470 | EC50 [10]: 0.0023 µM | Drug uptake [27]: Active | Activity [11]: Active | logD at 5 min, 100 µM [25]: 1.92 | Activity [12]: 583 nm | Drug uptake [13]: 2.66 nmol/mg | Ratio EC50 [28]: 10 | Activity [3]: 594 nm | Activity [14]: 0.2 | Activity [15]: 92080 M⁻¹ cm⁻¹ | Selectivity Index [16]: 1193 | Drug uptake [29]: Active | Activity [18]: 0.21 | EC50 [19]: 0.0044 µM | Activity [21]: 0.72 | Activity [22]: 0.57 | CC50 at 24 h [23]: 14.5 µM | Ratio EC50 [30]: 182 | Activity [24]: 578 nm

COC(=O)[C@@H](N)Cc1ccc(O[B-]23n4c5c6ccc(I)cc6c4N=c4c6ccc(I)cc6c(n42)=NC2=[N+]3C(=N5)c3ccc(I)cc32)cc1 (some centres not stated)
Activity [8]: 0.34 nanoseconds | CC50 at 24 h [9]: > 100 µM | EC50 [10]: > 100 µM | logD at 5 min, 100 µM [25]: 1.79 | Activity [12]: 569 nm | Activity [3]: 578 nm | Activity [14]: 0.01 | Activity [15]: 37460 M⁻¹ cm⁻¹ | Activity [18]: 0.01 | EC50 [19]: > 100 µM | Activity [21]: 0.29 | Activity [22]: 0.49 | CC50 at 24 h [23]: > 100 µM | Activity [24]: 568 nm

CCSc1ccc2c(c1)C1=Nc3c4ccc(SCC)cc4c4n3[B@-]3(Oc5ccc(C[C@H](N)C(=O)OC)cc5)n5c(c6cc(SCC)ccc6c5=N4)=NC2=[N+]13
Selectivity Index [6]: >455 | Drug uptake [7]: 0.622 nmol/mg | Activity [8]: 1.71 nanoseconds | CC50 at 24 h [9]: 68.8 µM | EC50 [10]: 0.22 µM | Activity [11]: Active | logD at 5 min, 100 µM [25]: 1.93 | Activity [12]: 583 nm | Drug uptake [13]: 0.367 nmol/mg | Activity [3]: 594 nm | Activity [14]: 0.16 | Activity [15]: 66510 M⁻¹ cm⁻¹ | Selectivity Index [16]: 573 | Drug uptake [17]: Active | Activity [18]: 0.17 | EC50 [19]: 0.12 µM | Drug uptake [20]: Active | Activity [21]: 0.5 | Activity [22]: 0.49 | CC50 at 24 h [23]: > 100 µM | Activity [24]: 579 nm

Fc1c(F)c(F)c2c(c1F)C1=Nc3c4c(F)c(F)c(F)c(F)c4c4n3[B-]3(OCc5ccc6c(c5)OCCOCCOCCOCCOCCO6)n5c(c6c(F)c(F)c(F)c(F)c6c5=N4)=NC2=[N+]13 (configuration not stated)
Selectivity Index [6]: 1.16 | CC50 at 24 h [9]: 6.78 µM | EC50 [10]: 16.3 µM | Activity [12]: 567 nm | Activity [3]: 579 nm | Activity [14]: 0.014 | Activity [15]: 81000 M⁻¹ cm⁻¹ | Selectivity Index [16]: 1.06 | Activity [18]: 0.014 | EC50 [19]: 6.4 µM | Activity [21]: 0.056 | Activity [22]: 0.086 | CC50 at 24 h [23]: 18.9 µM | Activity [24]: 568 nm

CCSc1ccc2c(c1)C1=Nc3c4ccc(SCC)cc4c4n3[B-]3(Oc5ccc(C[C@H](NC(=O)OC(C)(C)C)C(=O)OC)cc5)n5c(c6cc(SCC)ccc6c5=N4)=NC2=[N+]13 (some centres not stated)
Selectivity Index [6]: >21 | Drug uptake [7]: 0.121 nmol/mg | Activity [8]: 1.69 nanoseconds | CC50 at 24 h [9]: > 100 µM | EC50 [10]: 4.77 µM | Activity [11]: Active | logD at 5 min, 100 µM [25]: 2.63 | Activity [12]: 582 nm | Drug uptake [13]: 0.033 nmol/mg | Activity [3]: 596 nm | Activity [14]: 0.2 | Activity [15]: 97450 M⁻¹ cm⁻¹ | Selectivity Index [16]: >22 | Drug uptake [17]: Active | Activity [18]: 0.19 | EC50 [19]: 4.45 µM | Drug uptake [20]: Active | Activity [21]: 0.7 | Activity [22]: 0.64 | CC50 at 24 h [23]: > 100 µM | Activity [24]: 581 nm

c1ccc(O[B-]23n4c5c6ccccc6c4N=c4c6ccccc6c(n42)=NC2=[N+]3C(=N5)c3ccccc32)cc1 (configuration not stated)
Activity [31]: 0.18 | Activity [24]: 563 nm
